# What was measured:
# [1] = Photo stability under iodine tungsten lamp irradiation (residual absorptivity); assay type: physicochemical; conditions: 10 μM in acetonitrile; 6 hrs continuous irradiation, 500 W iodine tungsten lamp, 25 cm
# Experimental: The photo stability of dyes 2a-2e, and 3a-e (with a concentration of 10 μM) prepared above was tested. Corresponding weights of dyes 2a-2e and 3a-e and their references coumarin and Nile red were weighed, and dissolved in acetonitrile (at a concentration of 10 μM) respectively. All the samples were irradiated with a Philips iodine tungsten lamp (500 W), and the distance between the lamp and the sample was set to 25 cm. An 8 cm-thick NaNO2 (60 g·L^−1) cold trap was positioned between the lamp and the sample, to eliminate heat and short-wavelength light. The irradiation was continued for 6 hrs, during which the ultraviolet fluorescence was tested every half an hour. After 6 hrs, the light stability was measured by residual absorptivity calculated based on the change in the absorption intensity at various times before and after the irradiation. […] The residual absorptivity of dyes 2a-e, and 3a-e is 2a: 93%, 2b: 92%, 2c: 95%, 2d: 91%, 2e: 97%, 3a: 93%, 3b: 92%, 3c: 94%, 3d: 93%, 3e: 92%. It can be seen that dyes 2a-2e and 3a-e have higher photo stability.
# [2] = tested on: mitochondria in HeLa cells; assay: Colocalization imaging with red mitochondrial marker Mito Tracker Red CMXRos, laser confocal microscope; assay type: cell-based; conditions: 2 μM; for mitochondria labeling ability: blue channel; for colocalization coefficient: versus Mito Tracker Red CMXRos (100 nm)
# Experimental: To test the fluorescent labeling ability of Compound 2a compared with commercial mitochondrial markers, dye 2a was formulated into a mother liquor in DMSO (dimethyl sulfoxide), and then added to a conventional cell culture medium to give a concentration of dye 2a in the cell culture medium of 2 μM. HeLa cells were co-cultured for 10 min in an incubator at saturated humidity, 37° C., and 5% CO2 (the experiment was same below). The red mitochondrial marker Mito Tracker© Red CMXRos (100 nm) was added, and the cells were co-incubated for another 10 min, washed three times with a PBS buffer, and imaged under a laser confocal microscope. In the blue channel, light of 405 nm was used for excitation, and a fluorescence signal in the range of 410-500 nm was collected; and in the red channel, light of 561 nm was used for excitation, and a fluorescence signal in the range of 570-750 nm was collected.
# The experiment method with dye 2b (2 μM), dye 2c (2 μM), dye 2d (2 μM), and dye 2e (2 μM) was the same with that with dye 2a, except that dye 2a was replaced.
# [3] = Ultraviolet-visible absorption and fluorescence emission in chloroform; assay type: physicochemical; conditions: 10 μM in chloroform; for maximum emission wavelength (highest fluorescence intensity): excitation 380-385 nm, slit 3 nm/1.5 nm (2a-e), excitation 545-550 nm, slit 1.5 nm/3 nm (3a-e)
# Experimental: The ultraviolet absorption and fluorescence emission of the dyes prepared above (at a concentration of 10 μM) in chloroform were tested. The horizontal ordinate is the wavelength, and the vertical ordinate is the absorbance and fluorescence intensity, respectively.
# In the ultraviolet-visible absorption spectrum, dye 2a has the maximum absorption at 388 nm; and in the fluorescence spectrum, dye 2a has the highest fluorescence intensity at 457 nm, where the excitation wavelength is 380 nm, and the slit width is 3 nm/1.5 nm. In the ultraviolet-visible absorption spectrum, dye 2b has a maximum absorption wavelength of 386 nm; and in the fluorescence spectrum, dye 2b has a maximum emission wavelength of 459 nm, where the excitation wavelength is 385 nm, and the slit width is 3 nm/1.5 nm. In the ultraviolet-visible absorption spectrum, dye 2c has a maximum absorption wavelength of 385 nm; and in the fluorescence spectrum, dye 2c has a maximum emission wavelength of 455 nm, where the excitation wavelength is 380 nm, and the slit width is 3 nm/1.5 nm. In the ultraviolet-visible absorption spectrum, dye 2d has the maximum absorption at 380 nm; and in the fluorescence spectrum, dye 2d has the highest fluorescence intensity at 457 nm, where the excitation wavelength is 380 nm, and the slit width is 3 nm/1.5 nm. In the ultraviolet-visible absorption spectrum, dye 2e has a maximum absorption wavelength of 385 nm; and in the fluorescence spectrum, dye 2e has a maximum emission wavelength of 458 nm, where the excitation wavelength is 385 nm, and the slit width is 3 nm/1.5 nm. In the ultraviolet-visible absorption spectrum, dye 3a has the maximum absorption at 554 nm; and in the fluorescence spectrum, dye 3a has the highest fluorescence intensity at 604 nm, where the excitation wavelength is 550 nm, and the slit width is 1.5 nm/3 nm. In the ultraviolet-visible absorption spectrum, dye 3b has a maximum absorption wavelength of 552 nm; and in the fluorescence spectrum, dye 3b has a maximum emission wavelength of 597 nm, where the excitation wavelength is 550 nm, and the slit width is 1.5 nm/3 nm. In the ultraviolet-visible absorption spectrum, dye 3c has a maximum absorption wavelength of 552 nm; and in the fluorescence spectrum, dye 3c has a maximum emission wavelength of 621 nm, where the excitation wavelength is 550 nm, and the slit width is 1.5 nm/3 nm. In the ultraviolet-visible absorption spectrum, dye 3d has a maximum absorption wavelength of 551 nm; and in the fluorescence spectrum, dye 3d has a maximum emission wavelength of 607 nm, where the excitation wavelength is 545 nm, and the slit width is 1.5 nm/3 nm. In the ultraviolet-visible absorption spectrum, dye 3e has a maximum absorption wavelength of 553 nm; and in the fluorescence spectrum, dye 3e has a maximum emission wavelength of 585 nm, where the excitation wavelength is 550 nm, and the slit width is 1.5 nm/3 nm. The above UV absorption and fluorescence emission test methods are conventional methods.
# [4] = tested on: mitochondria in HeLa cells; assay: Colocalization imaging with green mitochondrial marker Mito Tracker Green FM, laser confocal microscope; assay type: cell-based; conditions: 2 μM; for mitochondria labeling ability: red channel; for colocalization coefficient: versus Mito Tracker Green FM (100 nm)
# Experimental: Dye 3a was formulated into a mother liquor in DMSO (dimethyl sulfoxide), and then added to a conventional cell culture medium to give a concentration of dye 3a in the cell culture medium of 2 μM. HeLa cells were co-cultured for 10 min in an incubator at saturated humidity, 37° C., and 5% CO2 (the experiment was same below). The green mitochondrial marker Mito Tracker® Green FM (100 nm) was added, and the cells were co-incubated for another 10 min, washed three times with a PBS buffer, and imaged under a laser confocal microscope. In the red channel, light of 561 nm was used for excitation, and a fluorescence signal in the range of 570-750 nm was collected. In the green channel, light of 488 nm was used for excitation, and a fluorescence signal in the range of 500-550 nm was collected.
# The experiment method with dye 3b (2 μM), dye 3c (2 μM), dye 3d (2 μM), and dye 3e (2 μM) was the same with that with dye 3a, except that dye 3a was replaced.
residual absorptivity [1],maximum absorption wavelength [3],maximum emission wavelength (highest fluorescence intensity) [3],SMILES,mitochondria labeling ability [2],colocalization coefficient [2],mitochondria labeling ability [4],colocalization coefficient [4]
97%,–,–,"CCN(CC)c1ccc2nc3c4ccccc4c(=O)cc-3oc2c1 [Nile Red, Nile red, reference compound]",–,–,–,–
94%,–,–,"O=c1ccc2ccccc2o1 [coumarin, reference compound]",–,–,–,–
93%,388 nm,457 nm,CCN(CC)c1ccc2c(C)c(-c3ccc(C(N)=O)cc3)c(=O)oc2c1 [dye 2a],has mitochondria labeling ability,0.88,–,–
92%,386 nm,459 nm,CCN(CC)c1ccc2c(C)c(-c3ccc(C(=O)NC)cc3)c(=O)oc2c1 [dye 2b],have mitochondria labeling ability,0.94,–,–
95%,385 nm,455 nm,CCN(CC)c1ccc2c(C)c(-c3ccc(C(=O)N(C)C)cc3)c(=O)oc2c1 [dye 2c],have mitochondria labeling ability,0.88,–,–
91%,380 nm,457 nm,CCN(CC)c1ccc2c(C)c(-c3ccc4c(c3)CC(=O)N4)c(=O)oc2c1 [dye 2d],have mitochondria labeling ability,0.92,–,–
97%,385 nm,458 nm,CCN(CC)c1ccc2c(C)c(-c3ccc4c(c3)CCC(=O)N4)c(=O)oc2c1 [dye 2e],have mitochondria labeling ability,0.91,–,–
93%,554 nm,604 nm,CCN(CC)c1ccc2nc3c4ccc(-c5ccc(C(N)=O)cc5)cc4c(=O)cc-3oc2c1 [dye 3a],–,–,has mitochondria labeling ability,0.94
92%,552 nm,597 nm,CCN(CC)c1ccc2nc3c4ccc(-c5ccc(C(=O)NC)cc5)cc4c(=O)cc-3oc2c1 [dye 3b],–,–,has mitochondria labeling ability,0.88
94%,552 nm,621 nm,CCN(CC)c1ccc2nc3c4ccc(-c5ccc(C(=O)N(C)C)cc5)cc4c(=O)cc-3oc2c1 [dye 3c],–,–,has mitochondria labeling ability,0.94
93%,551 nm,607 nm,CCN(CC)c1ccc2nc3c4ccc(-c5ccc6c(c5)CC(=O)N6)cc4c(=O)cc-3oc2c1 [dye 3d],–,–,has mitochondria labeling ability,0.96
92%,553 nm,585 nm,CCN(CC)c1ccc2nc3c4ccc(-c5ccc6c(c5)CCC(=O)N6)cc4c(=O)cc-3oc2c1 [dye 3e],–,–,has mitochondria labeling ability,0.92
